Consider nine molecules from ChEMBL document CHEMBL1201862, “PubChem BioAssay data set” (2004).

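Where inhibition never reached the appropriate level, the endpoint shown equals the highest concentration tested. Otherwise, values were interpolated linearly from a five-concentration, 48-hour dose response in 96-well plates. GI50 marks 50% less growth.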 The source made the active and inactive calls. No stated cut-off is given here; in the data, active = GI50 up to about 1.1 µM and inactive = higher. *1 amine or outer side, *2 acyl side, *3 side chain or, on linkers, in order; H or OH if unused. Where a SMILES comes first, the peptide text is derived from it. Bridges are numbered along the chain shown (N, C = ends). Roman numbers before positions name the chains, in order. [ ]: non-standard residue; d: D form. Actinocin(9to1) = Cc1c2oc3c(C)ccc(C(=O)[*:1])c3nc-2c(C(=O)[*:2])c(N)c1=O; NMeV = CN[CH](C(=O)O)C(C)C; Sar = CNCC(=O)O A value given as a limit tells only on which side of the number the result lay.

Among the test systems are RXF 393; NCI-H522; HCC 2998; SN12C; NCI-H460; HCT-15; KM12; RPMI-8226; COLO 205; MDA-N; BT-549; DU-145; MDA-MB-435; EKVX; SR; U-251; MDA-MB-231; CAKI-1; OVCAR-5; M14.
Holding throughout (assay): NCI anticancer screen, dose series, 48 h

Take `C=C(C)[C@@H]1CC[C@]2(C)CC[C@]3(C)[C@H](CC[C@@H]4[C@@]5(C)CC[C@H](O)C(C)(C)[C@@H]5CC[C@]43C)[C@@H]12` [LUPEOL]: the GI50 in the assay with RXF 393 was 14 µM (inactive); in the assay with NCI-H522, 23.8 µM (inactive); in the assay on HCC 2998 it was > 100 µM (inactive); in the assay on SN12C, 36.5 µM (inactive); in the assay on NCI-H460 it was 45.7 µM (inactive); with HCT-15 it was over 70.1 µM. The GI50 was > 67 µM (inactive) with KM12; 53.7 µM (inactive) with RPMI-8226; > 100 µM (inactive) in the assay on COLO 205; 32.7 µM (inactive) with MDA-N; 15.6 µM (inactive) in the assay with BT-549; > 100 µM (inactive) in the assay on DU-145. Besides, the GI50 in the assay on MDA-MB-435 was 19.4 µM (inactive); in the assay on EKVX it was 72.9 µM (inactive); in the assay with SR it was 42.8 µM (inactive); in the assay with U-251, 21.9 µM (inactive); in the assay with MDA-MB-231, 58.6 µM (inactive); in the assay with CAKI-1, > 81.1 µM (inactive). The GI50 was > 100 µM (inactive) in the assay on OVCAR-5 and > 94.6 µM (inactive) with M14.

With `CCOC(=O)Nc1cc2ccccc2c(/N=N/c2ccccc2)c1O`, the GI50 was 20.7 µM (inactive) in the assay on RXF 393; 29.6 µM (inactive) with NCI-H522; > 100 µM (inactive) in the assay with HCC 2998; > 100 µM (inactive) with SN12C; > 100 µM (inactive) in the assay on NCI-H460; over 100 µM in the assay on HCT-15. Besides, the GI50 in the assay with KM12, with RPMI-8226, in the assay on COLO 205, with MDA-N, in the assay with BT-549 and with DU-145 was > 100 µM (inactive) in each case. Also, the GI50 in the assay on MDA-MB-435 is > 100 µM (inactive); in the assay with EKVX, > 100 µM (inactive); in the assay on SR, > 100 µM (inactive); in the assay on U-251, 26.5 µM (inactive); with MDA-MB-231 it was > 100 µM (inactive); in the assay on CAKI-1, 75.3 µM (inactive). The GI50 in the assay with OVCAR-5 and with M14 was > 100 µM (inactive) throughout.

Turning to `COc1cccc(CCNc2c(C#N)c3n(c4ccccc4[n+]3C)c3ncccc23)c1`, the GI50 in the assay on RXF 393 was 13.5 µM (inactive); with NCI-H522 it was 4.16 µM (inactive); in the assay on HCC 2998, 1.93 µM (inactive); in the assay on SN12C, 15.9 µM (inactive); in the assay with NCI-H460 it was 1.34 µM (inactive); in the assay with HCT-15 it was 1.75 µM. Further, the GI50 in the assay on KM12 was 2 µM (inactive); with RPMI-8226, 2.71 µM (inactive); in the assay with COLO 205 it was 4.93 µM (inactive); in the assay on MDA-N, 5.2 µM (inactive); with BT-549 it was 23.3 µM (inactive); with DU-145, 5.42 µM (inactive). Besides, the GI50 with MDA-MB-435 was 2.52 µM (inactive); in the assay with EKVX, 17.3 µM (inactive); in the assay on SR, > 100 µM (inactive); with U-251, 2.37 µM (inactive); in the assay on MDA-MB-231, 4.52 µM (inactive); with CAKI-1 it was 6.52 µM (inactive). Also, the GI50 in the assay with OVCAR-5 is 15.3 µM (inactive); in the assay on M14 it was 1.76 µM (inactive).

With `O=c1[nH]nc(Cc2ccc(Cl)cc2)n1/N=C/c1ccc([N+](=O)[O-])o1`, the GI50 with RXF 393 is 1.56 µM (inactive); with NCI-H522 it was 1 µM (active); with HCC 2998, 2.13 µM (inactive); with SN12C, 3.78 µM (inactive); with NCI-H460, 3.4 µM (inactive); in the assay with HCT-15, 2.21 µM. In addition, the GI50 with KM12 is 2.03 µM (inactive); in the assay on RPMI-8226 it was 1.12 µM (active); in the assay on COLO 205 it was 1.84 µM (inactive); in the assay on MDA-N, 1.65 µM (inactive); in the assay on BT-549 it was 1.87 µM (inactive); in the assay on DU-145 it was 3.64 µM (inactive). Also, the GI50 was 2.4 µM (inactive) in the assay on MDA-MB-435; 4.63 µM (inactive) with EKVX; 2.17 µM (inactive) in the assay with SR; 4.12 µM (inactive) in the assay with U-251; 3.38 µM (inactive) in the assay with MDA-MB-231; 3.24 µM (inactive) in the assay with CAKI-1. Also, the GI50 with OVCAR-5 was 6.85 µM (inactive); in the assay with M14, 2.17 µM (inactive).

In the case of `CCOC(C/N=c1/nc(N(C)C)ss1)OCC`, the GI50 in the assay with RXF 393 is 19 µM (inactive); in the assay on NCI-H522, 0.0998 µM (active); in the assay with HCC 2998, > 77.4 µM (inactive); in the assay with SN12C, 19.2 µM (inactive); in the assay on NCI-H460, 4.31 µM (inactive); in the assay on HCT-15, 25.8 µM. For the same molecule, the GI50 with KM12 is 4.61 µM (inactive); with RPMI-8226 it was 1.16 µM (inactive); with COLO 205 it was 0.986 µM (active); in the assay on MDA-N, 3.56 µM (inactive); with BT-549, 23.4 µM (inactive); with DU-145 it was > 71.1 µM (inactive). The GI50 with MDA-MB-435 was 1.91 µM (inactive); with EKVX, 34.1 µM (inactive); in the assay on SR, 1.48 µM (inactive); in the assay with U-251, 16 µM (inactive); with MDA-MB-231 it was 15.5 µM (inactive); with CAKI-1 it was 22.6 µM (inactive). In addition, the GI50 with OVCAR-5 is 19.5 µM (inactive); in the assay on M14, 16.9 µM (inactive).

As to `CC(=O)n1cc(C2CC23N=C(c2ccccc2)OC3=O)c2ccccc21` (stereo not given), the GI50 with RXF 393 was 16.3 µM (inactive); in the assay with NCI-H522 it was 15.3 µM (inactive); with HCC 2998 it was 13.1 µM (inactive); with SN12C, 14.7 µM (inactive); with NCI-H460, 22.4 µM (inactive); with HCT-15, 20.3 µM. Moreover, the GI50 with KM12 is 20.2 µM (inactive); in the assay with RPMI-8226, 7.87 µM (inactive); in the assay with COLO 205, 18.4 µM (inactive); with MDA-N it was 23.9 µM (inactive); in the assay with BT-549 it was 14.2 µM (inactive); in the assay on DU-145, 16 µM (inactive). Further, the GI50 with MDA-MB-435 is 21.1 µM (inactive); in the assay on EKVX, 21.8 µM (inactive); in the assay on SR, 10.6 µM (inactive); in the assay with U-251 it was 18.1 µM (inactive); in the assay with MDA-MB-231, 20.8 µM (inactive); in the assay on CAKI-1, 15.8 µM (inactive). In addition, the GI50 in the assay on OVCAR-5 is 22 µM (inactive); with M14, 16.2 µM (inactive).

For `CCCCCCCCCCCCCCCC(=O)Nc1ccn(C2OC(CO)C(O)C2O)c(=O)n1` (stereo not given), the GI50 was 24.6 µM (inactive) in the assay on RXF 393; 2.25 µM (inactive) in the assay with NCI-H522; 25.1 µM (inactive) in the assay on HCC 2998; 31 µM (inactive) in the assay on SN12C; 0.78 µM (active) in the assay with NCI-H460; 17.7 µM with HCT-15. In addition, the GI50 in the assay with KM12 was 29.4 µM (inactive); in the assay with RPMI-8226 it was 42.2 µM (inactive); with COLO 205, 37.9 µM (inactive); in the assay on MDA-N it was 30.3 µM (inactive); with BT-549 it was 33.7 µM (inactive); in the assay with DU-145, 3.38 µM (inactive). For the same molecule, the GI50 in the assay on MDA-MB-435 is 27.6 µM (inactive); in the assay with EKVX it was > 100 µM (inactive); with SR it was 0.6 µM (active); in the assay with U-251 it was 12.4 µM (inactive); in the assay with MDA-MB-231 it was > 62.8 µM (inactive); in the assay on CAKI-1, 28.7 µM (inactive). Also, the GI50 in the assay with OVCAR-5 is 45.4 µM (inactive); with M14, 3.21 µM (inactive).

Regarding `Cc1c2oc3c(C)ccc(C(=O)NC4C(=O)NC(C(C)C)C(=O)N5CCCC5C(=O)N(C)CC(=O)N(C)C(C(C)C)C(=O)OC4C)c3nc-2c(C(=O)NC2C(=O)NC(C(C)C)C(=O)N3CCCC3C(=O)N(C)CC(=O)N(C)C(C(C)C)C(=O)OC2C)c(N)c1=O` (stereo not given) (I: TVP[Sar][NMeV] / II: TVP[Sar][NMeV]; ester I:1-I:C, II:1-II:C; linker I:N-II:N via Actinocin(9to1); configuration not given here), the GI50 in the assay with RXF 393 was 0.00136 µM (active); in the assay with NCI-H522 it was < 0.0001 µM (active); in the assay on HCC 2998 it was 0.00684 µM (active); in the assay with SN12C, 0.00011 µM (active); in the assay on NCI-H460 it was < 0.0001 µM (active); in the assay with HCT-15, 0.0123 µM. In addition, the GI50 in the assay on KM12 is < 0.0001 µM (active); in the assay on RPMI-8226 it was 0.00104 µM (active); with COLO 205 it was 0.000161 µM (active); in the assay with MDA-N, 0.000197 µM (active); with BT-549 it was 0.0025 µM (active); in the assay with DU-145, 0.000359 µM (active). Also, the GI50 in the assay with MDA-MB-435 was 0.000461 µM (active); in the assay with EKVX it was 0.00416 µM (active); with SR, < 0.0001 µM (active); with U-251 it was < 0.0001 µM (active); in the assay with MDA-MB-231 it was 0.00494 µM (active); with CAKI-1, 0.00224 µM (active). Moreover, the values for the GI50 with OVCAR-5 and in the assay with M14 were 0.00181 µM (active) and 0.00256 µM (active), respectively.

As to `COc1ccc2nc3cccc([N+](=O)[O-])c3c(NCCC(=O)O)c2c1`, the GI50 in the assay with RXF 393 is > 10 µM (inactive); in the assay on NCI-H522 it was 4.56 µM (inactive); with HCC 2998, > 10 µM (inactive); in the assay with SN12C, > 10 µM (inactive); in the assay on NCI-H460 it was > 10 µM (inactive); in the assay on HCT-15 it was over 10 µM. The GI50 is > 10 µM (inactive) with KM12; > 10 µM (inactive) with RPMI-8226; 7.59 µM (inactive) with COLO 205; > 10 µM (inactive) in the assay on MDA-N; > 10 µM (inactive) in the assay on BT-549; > 10 µM (inactive) in the assay with DU-145. Further, the GI50 with MDA-MB-435, in the assay with EKVX, in the assay on SR, in the assay with U-251, in the assay with MDA-MB-231 and with CAKI-1 was > 10 µM (inactive) in each case. Also, the GI50 with OVCAR-5 and with M14 was > 10 µM (inactive) throughout.
